Experimental data from patent publication US9408852B2, “Method of lowering serum uric acid levels with (S)-tofisopam” (PHARMOS CORPORATION, priority 2011, dated 2016).
“And” between values parts separate entries of the source, which are not always exact repeats. Equal values may be shown once.

Test system: urinary creatinine excretion
Assay: 24 h urinary creatinine excretion in patients with hyperuricemia and gout (Example 9)
Format: in vivo, human
Conditions: 50 mg qd Day 1 and 7, tid Days 2 to 6
Description: The study lasted 7 days, and patients were treated with placebo or 50 mg of enantiomerically-pure (S)-tofisopam once a day (qd) on Day 1 and Day 7 of the study, and with placebo or 50 mg of enantiomerically-pure (S)-tofisopam three times a day (tid) for Days 2 to 6 of the study. […] In Table 8, days indicated with a minus sign (e.g. D-1) indicate the time point corresponding to that number of days before treatment was initiated. For example, D-14 is the time point fourteen days before treatment was initiated.

[1] = individual patient (P#), [D 1 to D 2] from [D −2 to D −1]
[2] = individual patient (P#), [D 6 to D 7] from [D 1 to D 2]
[3] = mean (M) of patients, [D 1 to D 2] from [D −2 to D −1]
[4] = mean (M) of patients, [D 6 to D 7] from [D 1 to D 2]

Compound: CC[C@@H]1C(C)=NN=C(c2ccc(OC)c(OC)c2)c2cc(OC)c(OC)cc21 [(S)-tofisopam]
- Percent change in Uc (mg/24 h), amount of creatinine excreted into the urine over 24 hours [1]: 47.6% and 5.5% and −22.9% and −16.8% and 11.5% and −8.7% and −5.2% and −8.1% and −15.0% and −3.5% and −11.0% and 3.8%
- Percent change in Uc (mg/dL), concentration of creatinine in 24 hour urine [1]: 71.2% and −14.5% and 14.4% and −14.1% and −44.2% and −5.6% and 56.8% and −21.0% and −33.0% and 5.4% and −35.5% and 25.6%
- Percent change in Uc (mg/24 h), amount of creatinine excreted into the urine over 24 hours [2]: −14.5% and 19.2% and 15.4% and 10.8% and 7.9% and 5.9% and 5.6% and 21.6% and 5.8% and −4.8% and −10.8%
- Percent change in Uc (mg/dL), concentration of creatinine in 24 hour urine [2]: −31.0% and 0.2% and −33.7% and −21.3% and −15.2% and −32.1% and −38.3% and −24.0% and −11.2% and −6.0% and −30.1%
- Percent change in Uc (mg/24 h), amount of creatinine excreted into the urine over 24 hours [3]: −1.9%
- Percent change in Uc (mg/dL), concentration of creatinine in 24 hour urine [3]: 0.5%
- Percent change in Uc (mg/24 h), amount of creatinine excreted into the urine over 24 hours [4]: 5.6%
- Percent change in Uc (mg/dL), concentration of creatinine in 24 hour urine [4]: −22.1%
